Experimental findings from US20250129069A1, “TRIAZOLO WRN INHIBITORS” (Nimbus Wadjet, Inc., priority 2023, published 2025) are described below.

Like-named read-outs stand apart in the source and are kept apart here.

In assay [1] the test system is p21 induction in HCT 116 cells. Kind of assay: p21 induction in cells (In-Cell Western, p21/GAPDH ratio). It is filed as cell-based. The note with it: 24 h compound incubation, read-out: p21_EC50. In short, it runs like this: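 HCT 116 cells treated 24 h at 37° C with 11-point, 2-fold dilutions typically from 10 μM, in duplicate. Fixed cells co-stained for p21 (800 nm) and GAPDH (700 nm) by In-Cell Western. p21/GAPDH ratio normalised between DMSO and reference WRN inhibitor controls, and EC50 obtained by nonlinear regression.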

For assay [2], the target named is human Werner helicase (WRN, amino acids 517-1235 with L1074F point mutation) (Homo sapiens (Human), UniProt Q14191, L1074F). Kind of assay: WRN (BV08) ADP-Glo assay. It is filed as biochemical. The note with it: human WRN (aa 517-1235, L1074F), read-out: ADP-Glo_hWRN_IC50. In outline: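 Untagged WRN 517-1235 (L1074F), Sf9/baculovirus-expressed, 0.15 nM, preincubated 15 min with compound, then 5 μM ATP and 0.1 nM annealed DNA duplex added; 60 min at 25 °C in Bicine pH 7.5, 1 mM MgCl2, 1% DMSO. ADP-Glo luminescence; % inhibition vs DMSO and 20 μM NSC-617145 controls, four-parameter IC50 fit.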
Sequence of human Werner helicase (WRN, amino acids 517-1235 with L1074F point mutation) (Q14191 other isoform, or with tags, fused parts or gaps L1074F (already in the parent)): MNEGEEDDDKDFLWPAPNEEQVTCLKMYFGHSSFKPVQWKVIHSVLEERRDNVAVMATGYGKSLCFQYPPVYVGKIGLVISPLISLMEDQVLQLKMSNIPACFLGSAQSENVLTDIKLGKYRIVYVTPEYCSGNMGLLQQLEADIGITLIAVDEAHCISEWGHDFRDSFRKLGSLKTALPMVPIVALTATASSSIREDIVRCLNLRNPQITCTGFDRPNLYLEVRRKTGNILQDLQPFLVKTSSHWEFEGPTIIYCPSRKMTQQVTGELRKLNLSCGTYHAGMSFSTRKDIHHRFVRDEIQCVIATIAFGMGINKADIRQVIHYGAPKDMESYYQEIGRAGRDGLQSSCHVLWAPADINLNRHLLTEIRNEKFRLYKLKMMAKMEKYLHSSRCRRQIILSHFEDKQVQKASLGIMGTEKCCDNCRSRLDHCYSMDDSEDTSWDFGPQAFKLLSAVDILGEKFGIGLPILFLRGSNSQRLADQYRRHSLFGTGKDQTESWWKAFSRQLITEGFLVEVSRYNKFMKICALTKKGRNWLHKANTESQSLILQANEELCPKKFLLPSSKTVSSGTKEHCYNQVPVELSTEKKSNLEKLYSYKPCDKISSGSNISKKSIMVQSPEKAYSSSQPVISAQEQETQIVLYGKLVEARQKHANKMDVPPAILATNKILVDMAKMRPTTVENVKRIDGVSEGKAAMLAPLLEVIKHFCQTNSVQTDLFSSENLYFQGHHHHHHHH
(In ADP-Glo the light output rises with the ADP produced.)

On to `CCc1c(N2CCN(C(=O)c3ncnc(C)c3O)[C@H]3CC[C@@H]32)c(=O)c2nn(-c3cc(C)n(C)n3)nc2n1CC(=O)NC12CC(C3CC3)(C1)C2` [Compound I-34, N-{3-cyclopropylbicyclo[1.1.1]pentan-1-yl}-2-[2-(1,5-dimethyl-1H-pyrazol-3-yl)-5-ethyl-6-[(1S,6S)-5-(5-hydroxy-6-methylpyrimidine-4-carbonyl)-2,5-diazabicyclo[4.2.0]octan-2-yl]-7-oxo-2H,4H,7H-[1,2,3]triazolo[4,5-b]pyridin-4-yl]acetamide], for which the EC50 in assay [1] (Homo sapiens) was at most 500 nM. The IC50 in assay [2] is 5 to 50 nM.

With `CCc1c(N2CCN(C(=O)c3ncnc(C)c3O)[C@H]3CC[C@@H]32)c(=O)c2nn(-c3cc(C)n(C)n3)nc2n1CC(=O)NC12CC(C(C)C)(C1)C2` [Compound I-35, 2-[2-(1,5-dimethyl-1H-pyrazol-3-yl)-5-ethyl-6-[(1S,6S)-5-(5-hydroxy-6-methylpyrimidine-4-carbonyl)-2,5-diazabicyclo[4.2.0]octan-2-yl]-7-oxo-2H,4H,7H-[1,2,3]triazolo[4,5-b]pyridin-4-yl]-N-[3-(propan-2-yl)bicyclo[1.1.1]pentan-1-yl]acetamide], the EC50 in assay [1] (Homo sapiens) is at most 500 nM. The IC50 in assay [2] lay within 5 to 50 nM.

As for `CCc1c(N2CCN(C(=O)c3ncnc(C)c3O)[C@H]3CC[C@@H]32)c(=O)c2nn(-c3cc(C)n(C)n3)nc2n1CC(=O)NC1CC2(CCC2)C1` [Compound I-36, 2-[2-(1,5-dimethyl-1H-pyrazol-3-yl)-5-ethyl-6-[(1S,6S)-5-(5-hydroxy-6-methylpyrimidine-4-carbonyl)-2,5-diazabicyclo[4.2.0]octan-2-yl]-7-oxo-2H,4H,7H-[1,2,3]triazolo[4,5-b]pyridin-4-yl]-N-{spiro[3.3]heptan-2-yl}acetamide], in assay [1] (Homo sapiens), the EC50 is at most 500 nM. For the same compound, the IC50 in assay [2] lay within 5 to 50 nM.

On to `CCc1c(N2CCN(C(=O)c3c(O)cncc3OC)CC2)c(=O)c2nn(-c3ccnc(OC)c3)nc2n1CC(=O)NC12CC(C(C)C)(C1)C2` [Compound I-37, 2-{5-ethyl-6-[4-(3-hydroxy-5-methoxypyridine-4-carbonyl)piperazin-1-yl]-2-(2-methoxypyridin-4-yl)-7-oxo-2H,4H,7H-[1,2,3]triazolo[4,5-b]pyridin-4-yl}-N-[3-(propan-2-yl)bicyclo[1.1.1]pentan-1-yl]acetamide], for which the EC50 in assay [1] (Homo sapiens) lay within 500 to 2000 nM. In addition, in assay [2], the IC50 was in the range of 5 to 50 nM.

Turning to `CCc1c(N2CCN(C(=O)c3ncnc(C)c3O)[C@H]3CC[C@@H]32)c(=O)c2nn(-c3ccnc(OC)c3)nc2n1CC(=O)NC12CC(OC(F)(F)F)(C1)C2` [Compound I-40, 2-{5-ethyl-6-[(1S,6S)-5-(5-hydroxy-6-methylpyrimidine-4-carbonyl)-2,5-diazabicyclo[4.2.0]octan-2-yl]-2-(2-methoxypyridin-4-yl)-7-oxo-2H,4H,7H-[1,2,3]triazolo[4,5-b]pyridin-4-yl}-N-[3-(trifluoromethoxy)bicyclo[1.1.1]pentan-1-yl]acetamide], the EC50 in assay [1] is at most 500 nM. The IC50 in assay [2] lay in the range of 5 to 50 nM.

Turning to `CCc1c(C23CCN(C(=O)c4ncnc(C)c4O)CC2C3)c(=O)c2nn(-c3ccnc(OC)c3)nc2n1CC(=O)NC12CC(C(C)C)(C1)C2` [Compound I-42, rel-2-{5-ethyl-6-[(1R,6S)-3-(5-hydroxy-6-methylpyrimidine-4-carbonyl)-3-azabicyclo[4.1.0]heptan-6-yl]-2-(2-methoxypyridin-4-yl)-7-oxo-2H,4H,7H-[1,2,3]triazolo[4,5-b]pyridin-4-yl}-N-[3-(propan-2-yl)bicyclo[1.1.1]pentan-1-yl]acetamide], the EC50 in assay [1] (Homo sapiens) is 500 to 2000 nM. For the same compound, the IC50 in assay [2] was in the range of 5 to 50 nM.

With `CCc1c(N2CCN(C(=O)c3c(OCCOC)ncc(C)c3O)CC2)c(=O)c2nn(-c3ccnc(OC)c3)nc2n1CC(=O)NC12CC(C(C)C)(C1)C2` [Compound I-45, 2-(5-ethyl-6-{4-[4-hydroxy-2-(2-methoxyethoxy)-5-methylpyridine-3-carbonyl]piperazin-1-yl}-2-(2-methoxypyridin-4-yl)-7-oxo-2H,4H,7H-[1,2,3]triazolo[4,5-b]pyridin-4-yl)-N-[3-(propan-2-yl)bicyclo[1.1.1]pentan-1-yl]acetamide], the EC50 in assay [1] (Homo sapiens) is at most 500 nM. Further, the IC50 in assay [2] was 5 to 50 nM.

Turning to `CCc1c(N2CCN(C(=O)c3ncnc(C)c3O)[C@H]3CC[C@@H]32)c(=O)c2nn(-c3cnn(C4CC4)c3)nc2n1CC(=O)NC12CC(C3CC3)(C1)C2` [Compound I-46, 2-[2-(1-cyclopropyl-1H-pyrazol-4-yl)-5-ethyl-6-[(1S,6S)-5-(5-hydroxy-6-methylpyrimidine-4-carbonyl)-2,5-diazabicyclo[4.2.0]octan-2-yl]-7-oxo-2H,4H,7H-[1,2,3]triazolo[4,5-b]pyridin-4-yl]-N-{3-cyclopropylbicyclo[1.1.1]pentan-1-yl}acetamide], in assay [1] (Homo sapiens), the EC50 is at most 500 nM. In addition, in assay [2], the IC50 was 5 to 50 nM.

Regarding `CCc1c(N2CCN(C(=O)c3ncnc(C)c3O)[C@H]3CC[C@@H]32)c(=O)c2nn(-c3ccnc(OC)c3)nc2n1CC(=O)NC1CC2(CC(F)C2)C1` (stereo partly drawn) [Compound I-47, 2-{5-ethyl-6-[(1S,6S)-5-(5-hydroxy-6-methylpyrimidine-4-carbonyl)-2,5-diazabicyclo[4.2.0]octan-2-yl]-2-(2-methoxypyridin-4-yl)-7-oxo-2H,4H,7H-[1,2,3]triazolo[4,5-b]pyridin-4-yl}-N-{6-fluorospiro[3.3]heptan-2-yl}acetamide], in assay [1] (Homo sapiens), the EC50 fell in the range of 500 to 2000 nM. In assay [2], the IC50 fell in the range of 5 to 50 nM.

As for `CCc1c(N2CCN(C(=O)c3ncnc(C)c3O)[C@H]3CC[C@@H]32)c(=O)c2nn(-c3ccnc(OC)c3)nc2n1CC(=O)NC12CC(C(C)C)(C1)C2` [Compound I-48, 2-{5-ethyl-6-[(1S,6S)-5-(5-hydroxy-6-methylpyrimidine-4-carbonyl)-2,5-diazabicyclo[4.2.0]octan-2-yl]-2-(2-methoxypyridin-4-yl)-7-oxo-2H,4H,7H-[1,2,3]triazolo[4,5-b]pyridin-4-yl}-N-[3-(propan-2-yl)bicyclo[1.1.1]pentan-1-yl]acetamide], in assay [1], the EC50 is at most 500 nM. Moreover, the IC50 in assay [2] lay within 5 to 50 nM.

For the compound `CCc1c(N2CCN(C(=O)c3ncnc(C)c3O)[C@H]3CC[C@@H]32)c(=O)c2nn(C3=CCOCC3)nc2n1CC(=O)NC12CC(C(C)C)(C1)C2` [Compound I-49, 2-[2-(3,6-dihydro-2H-pyran-4-yl)-5-ethyl-6-[(1S,6S)-5-(5-hydroxy-6-methylpyrimidine-4-carbonyl)-2,5-diazabicyclo[4.2.0]octan-2-yl]-7-oxo-2H,4H,7H-[1,2,3]triazolo[4,5-b]pyridin-4-yl]-N-[3-(propan-2-yl)bicyclo[1.1.1]pentan-1-yl]acetamide], in assay [1], the EC50 was at most 500 nM. Moreover, the IC50 in assay [2] lay in the range of 5 to 50 nM.

`CCc1c(N2CCN(C(=O)c3c(OC)ncc(COC)c3O)CC2)c(=O)c2nn(-c3ccnc(OC)c3)nc2n1CC(=O)NC12CC(C(C)C)(C1)C2` [Compound I-50, 2-(5-ethyl-6-{4-[4-hydroxy-2-methoxy-5-(methoxymethyl)pyridine-3-carbonyl]piperazin-1-yl}-2-(2-methoxypyridin-4-yl)-7-oxo-2H,4H,7H-[1,2,3]triazolo[4,5-b]pyridin-4-yl)-N-[3-(propan-2-yl)bicyclo[1.1.1]pentan-1-yl]acetamide]: the EC50 in assay [1] (Homo sapiens) lay within 2000 to 5000 nM. The IC50 in assay [2] lay in the range of 5 to 50 nM.

With `CCc1c(N2CCN(C(=O)c3c(OC)ncc(C(F)F)c3O)CC2)c(=O)c2nn(-c3ccnc(OC)c3)nc2n1CC(=O)NC12CC(C(C)C)(C1)C2` [Compound I-51, 2-(6-{4-[5-(difluoromethyl)-4-hydroxy-2-methoxypyridine-3-carbonyl]piperazin-1-yl}-5-ethyl-2-(2-methoxypyridin-4-yl)-7-oxo-2H,4H,7H-[1,2,3]triazolo[4,5-b]pyridin-4-yl)-N-[3-(propan-2-yl)bicyclo[1.1.1]pentan-1-yl]acetamide], in assay [1] (Homo sapiens), the EC50 was in the range of 2000 to 5000 nM. The IC50 in assay [2] was in the range of 5 to 50 nM.

With `CCc1c(N2CCN(C(=O)c3cccc4ncoc34)[C@H]3CC[C@@H]32)c(=O)c2nn(C3=CCOCC3)nc2n1CC(=O)NC12CC(C(C)C)(C1)C2` [Compound I-52, 2-{6-[(1S,6S)-5-(1,3-benzoxazole-7-carbonyl)-2,5-diazabicyclo[4.2.0]octan-2-yl]-2-(3,6-dihydro-2H-pyran-4-yl)-5-ethyl-7-oxo-2H,4H,7H-[1,2,3]triazolo[4,5-b]pyridin-4-yl}-N-[3-(propan-2-yl)bicyclo[1.1.1]pentan-1-yl]acetamide], in assay [1] (Homo sapiens), the EC50 was 500 to 2000 nM. For the same compound, the IC50 in assay [2] lay in the range of 5 to 50 nM.

For the compound `CCc1c(N2CCN(C(=O)c3ccccc3OC)[C@H]3CC[C@@H]32)c(=O)c2nn(C3=CCOCC3)nc2n1CC(=O)NC12CC(C(C)C)(C1)C2` [Compound I-53, 2-[2-(3,6-dihydro-2H-pyran-4-yl)-5-ethyl-6-[(1S,6S)-5-(2-methoxybenzoyl)-2,5-diazabicyclo[4.2.0]octan-2-yl]-7-oxo-2H,4H,7H-[1,2,3]triazolo[4,5-b]pyridin-4-yl]-N-[3-(propan-2-yl)bicyclo[1.1.1]pentan-1-yl]acetamide], the EC50 in assay [1] (Homo sapiens) is at most 500 nM. In assay [2], the IC50 lay in the range of 5 to 50 nM.

For `CCc1c(N2CCN(C(=O)c3ncnc(C)c3O)[C@H]3CC[C@@H]32)c(=O)c2nn(-c3ccnc(OC)c3)nc2n1CC(=O)NC12CC(C(F)(F)F)(C1)C2` [Compound I-54, 2-{5-ethyl-6-[(1S,6S)-5-(5-hydroxy-6-methylpyrimidine-4-carbonyl)-2,5-diazabicyclo[4.2.0]octan-2-yl]-2-(2-methoxypyridin-4-yl)-7-oxo-2H,4H,7H-[1,2,3]triazolo[4,5-b]pyridin-4-yl}-N-[3-(trifluoromethyl)bicyclo[1.1.1]pentan-1-yl]acetamide], the EC50 in assay [1] was at most 500 nM. In addition, in assay [2], the IC50 fell in the range of 5 to 50 nM.
